{
  "source": "paper PMC7701285",
  "about": "“A Strain-Specific Inhibitor of Receptor-Bound HIV-1 Targets a Pocket near the Fusion Peptide” (Cell Reports, 2020)",
  "molecular_target": "B41 SOSIP.664 pseudotype parent; B41 (9032_08_A1) HIV-1 Env on pseudotyped virus (Human immunodeficiency virus 1, UniProt B3UES2)",
  "assay": "TZM-bl pseudovirus neutralization, luciferase",
  "type": "cell-based",
  "conditions": "average, 1 h preincubation at 37°C, 1% DMSO, 48 h, entry read-out",
  "data": [
    {"smiles": "Cc1ccc(-c2ccc(NC(=O)N3CCC4(CCO4)CC3)cc2)cc1", "note": "[GO52]", "values": [
      {"measurement": "IC50", "value": 1600, "unit": "nM"}
    ]}
  ]
}
